Assay results from article PMC4960534, “Ligand binding to an Allergenic Lipid Transfer Protein Enhances Conformational Flexibility resulting in an Increase in Susceptibility to Gastroduodenal Proteolysis” (Scientific Reports, 2016).
Read-outs that look alike come from different tables or passages of the source.

Legend:
peach LTP [1] = target: T1, peach LTP (Prunus persica, UniProt P81402, A9S/H76S); experiment: CPA displacement assay (competitive, CPA as tracer); type: binding; settings: for ΔG Peach: ΔG = -RTln(Ki)
T1 construct: Peach LTP was purified from the skin of peach fruits; from tissue; host or cells: skin of peach fruits
Protocol: (§1) Ligand binding was assessed using a fluorescence assay based on cis-parinaric acid originally described by Cooper et al.[22]. Fluorescence intensity was measured at 25 °C with a LS55 Luminescence Spectrometer (Perkin Elmer, Cambridge, UK) using a […] slit width for both excitation (λ = 320 nm) and emission (λ = 420 nm) and the measurement taken for no longer than 1.5–2s. CPA (3 mM in ethanol) was titrated by 1 μL injections into 1 mL of LTP solutions (5 μM in 50 mM phosphate buffer pH 7.5) in a stepwise manner. Binding curves were fitted with GraphPad Prism using the rectangular hyperbolic function of Hill’s equation. For non-fluorescent ligands, a competitive assay was developed using CPA as a tracer ligand. CPA concentrations close to the calculated Kd of each LTP[49][50] (at either 1 or 0.5 μM CPA for peach LTP and 2 or 1 μM CPA for wheat LTP in 50 mM phosphate buffer pH 7.5 or pH 2.5, 150 mM NaCl, respectively) were used. After equilibrating for 2–3 min with gentle mixing, the competing non-fluorescent ligands (1 mM of palmitic acid, 16-OH palmitic acid, 12-OH stearic acid, linoleic acid or 1-palmitoyl–sn–glycerol–3–phosphatadyl choline (PC) ethanol) were titrated into the LTP solution in 1 μL aliquots. The resulting data were fitted using a sigmoidal curve-fitting logarithm in GraphPad Prism from which the concentration able to displace 50% of the CPA (IC50) was calculated. Ki values were calculated according to Cheng-Prusoff equation[51].

wheat LTP [2] = target: T2, wheat LTP (Triticum aestivum, UniProt P24296); experiment: as above; type: binding; settings: for Ki: Cheng-Prusoff; for ΔG Wheat: ΔG = -RTln(Ki)
T2 construct: Intact protein (residues 1–90); from tissue; host or cells: wheat bran
T2 sequence (P24296 24-113): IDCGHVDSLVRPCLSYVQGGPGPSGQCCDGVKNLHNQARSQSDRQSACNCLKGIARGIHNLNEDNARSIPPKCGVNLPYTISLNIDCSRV
Protocol: as §1

peach LTP [3] = target: T3, peach LTP (Prunus persica, UniProt P81402); experiment: CPA fluorescence titration, direct binding
T3 construct: Peach LTP was purified from the skin of peach fruits; from tissue; host or cells: skin of peach fruits
T3 sequence (P81402 1-91): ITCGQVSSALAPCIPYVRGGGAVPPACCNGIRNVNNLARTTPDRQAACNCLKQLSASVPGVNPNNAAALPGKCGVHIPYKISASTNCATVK
Protocol: as §1

wheat LTP [4] = target: T4, wheat LTP (Triticum aestivum, UniProt P24296); experiment: CPA fluorescence titration, direct binding
T4 construct: Intact protein (residues 1–90); from tissue; host or cells: wheat bran
T4 sequence (P24296 24-90 limits assumed): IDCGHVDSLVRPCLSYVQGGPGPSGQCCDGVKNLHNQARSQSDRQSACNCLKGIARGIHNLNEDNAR
Protocol: as §1

[5] = 50 mM phosphate, pH 7.5, Cheng-Prusoff, read-out: Ki Peach
[6] = 50 mM phosphate, pH 7.5, displacement of 1 μM CPA, read-out: IC50 Peach
[7] = 150 mM NaCl, pH 2.5, Cheng-Prusoff, read-out: Ki Peach
[8] = 150 mM NaCl, pH 2.5, displacement of 0.5 μM CPA, read-out: IC50 Peach
[9] = 50 mM phosphate, pH 7.5, displacement of 2 μM CPA
[10] = 150 mM NaCl, pH 2.5, displacement of 1 μM CPA

T1 sequence (P81402 whole entry A9S/H76S): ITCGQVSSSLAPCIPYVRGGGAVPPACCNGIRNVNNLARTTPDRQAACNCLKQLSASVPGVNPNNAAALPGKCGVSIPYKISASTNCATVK

Row | Molecule | Ki (peach LTP [1]; [5]) [nM] | IC50 (peach LTP [1]; [6]) [nM] | ΔG Peach (peach LTP [1]; 50 mM phosphate, pH 7.5) [kcal/mol] | Ki (peach LTP [1]; [7]) [nM] | IC50 (peach LTP [1]; [8]) [nM] | ΔG Peach (peach LTP [1]; 150 mM NaCl, pH 2.5) [kcal/mol] | Ki (wheat LTP [2]; 50 mM phosphate, pH 7.5) [nM] | IC50 (wheat LTP [2]; [9]) [nM] | ΔG Wheat (wheat LTP [2]; 50 mM phosphate, pH 7.5) [kcal/mol] | Ki (wheat LTP [2]; 150 mM NaCl, pH 2.5) [nM] | IC50 (wheat LTP [2]; [10]) [nM] | ΔG Wheat (wheat LTP [2]; 150 mM NaCl, pH 2.5) [kcal/mol] | IC50 (peach LTP [1]) [nM] | Ki (peach LTP [1]) [nM] | Kd (peach LTP [3]; 50 mM phosphate, pH 7.5) [nM] | Kd (peach LTP [3]; 150 mM NaCl, pH 2.5) [nM] | Kd (wheat LTP [4]; 50 mM phosphate, pH 7.5) [nM] | Kd (wheat LTP [4]; 150 mM NaCl, pH 2.5) [nM]
1 | CCCCCCCCCCCCCCCC(=O)OC[C@@H](O)COP(=O)([O-])OCC[N+](C)(C)C [Phosphatidyl choline (vesicular), 1-palmitoyl–sn–glycerol–3–phosphatadyl choline] | 700 ± 40 | 1500 ± 100 | 8.35 | 800 ± 100 | 1500 ± 100 | 8.29 | 3900 ± 100 | 5600 ± 100 | 7.37 | 3600 ± 100 | 6800 ± 200 | 7.41 | – | – | – | – | – | –
2 | CCCCCCCCCCCCCCCC(=O)O [Palmitic acid, palmitic acid] | – | – | 8.39 | – | – | – | 3600 ± 100 | 5200 ± 100 | 7.41 | – | – | – | 1400 ± 100 | 700 ± 30 | – | – | – | –
3 | CC\C=C/C=C/C=C/C=C\CCCCCCCC(=O)O [CPA, cis-parinaric acid] | – | – | – | – | – | – | – | – | – | – | – | – | – | – | 1000 ± 20 | 600 ± 100 | 4500 ± 200 | 1200 ± 100
4 | 1-palmitoyl–sn–glycerol–3–phosphatadyl choline [Phosphatidyl choline] | 1100 ± 20 | 2200 ± 30 | 8.13 | 1000 ± 100 | 1800 ± 100 | 8.17 | 4600 ± 100 | 6700 ± 100 | 7.27 | 2800 ± 100 | 5300 ± 100 | 7.55 | – | – | – | – | – | –
5 | CCCCC/C=C\C/C=C\CCCCCCCC(=O)O [Linoleic acid, linoleic acid] | – | – | 8.29 | – | – | – | 5300 ± 20 | 7600 ± 30 | 7.19 | – | – | – | 1600 ± 100 | 800 ± 40 | – | – | – | –
